The numbers were not newly measured in article PMC11195919 (Journal of pharmacy & pharmaceutical sciences : a …, 2021), which cites them from elsewhere.

In one series the test system is OATP1B3. To be noted: read-out: Km of CCK-8 transport by OATP1B3.

By Km is commonly meant the substrate concentration at which the rate is half of its maximum. Take cholecystokinin octapeptide [CCK-8]: the Km in the series with OATP1B3 was 3.82 µM; in the series with primary rat hepatocyte (read-out: Km of CCK-8 uptake in primary rat hepatocyte) it was 6.7 µM. The “linear range of initial uptake of CCK-8” value with primary rat hepatocyte (non-transduced rat hepatocytes) is “at least 1 min”.
